Patent US8129345B2, “MUC1-IκB kinase complexes and their activities” (Dana-Farber Cancer Institute, Inc., priority 2006, dated 2012)

Columns and labels:
IKKγ = IKKγ (Homo sapiens, UniProt Q9Y6K9); experiment: In vitro GST pull-down binding to IKKγ
Procedure: FIG. 5B is a pair of photographs of immunoblots showing an interaction between MUC1-CD and IKKγ. GST- and GST-IKKγ bound to glutathione beads were incubated with purified MUC1-CD. The precipitates were immunoblotted (IB) with anti-MUC1-C antibodies. Commassie blue staining of the gel was performed to confirm that equal amounts of GST- and GST-IKKγ were used in the experiment. The molecular weights of proteins (as indicated on the left of the photographs) are expressed as kilodaltons (kDa).
(§1) FIG. 5C is a pair of photographs of immunoblots. GST- and the indicated GST-MUC1-CD fusion proteins or fragments bound to glutathione beads were incubated with purified IKKγ. The precipitates were immunoblotted (IB) with anti-IKKγ antibody. Commassie blue staining of the gel was performed to confirm that equal amounts of GST- and GST-MUC1 proteins were used in the experiment. The molecular weights of proteins (as indicated on the left of the photographs) are expressed as kilodaltons (kDa).
FIG. 5D is a pair of photographs of immunoblots. GST and the indicated GST-IKKγ fusion proteins bound to glutathione beads were incubated with MUC1-CD. The precipitates were immunoblotted (IB) with anti-MUC1-C antibody. Commassie blue staining of the gel was performed to confirm that equal amounts of GST- and GST-IKKγ proteins were used in the experiment. The molecular weights of proteins (as indicated on the left of the photographs) are expressed as kilodaltons (kDa).
as §1, with “FIG. 11B” for “FIG. 5C”, “of an immunoblot and Coomassie blue stained gel. GST” for “of immunoblots. GST-”, “proteins (MUC1-CD and MUC1-CD(mSRM))” for “proteins or fragments”, “with” for “with purified”, “with an” for “with”, “and GST-MUC1-CD” for “and GST-MUC1”
In vitro binding assays. Purified GST-MUC1-CD (glutathione s-transferase fused to the MUC1-CD polypeptide) was cleaved with thrombin to remove the GST moiety. GST, GST-IKKβ (DiDonato et al. (1997) Nature 388:548-554), GST-IKKβ (1-458), GST-IKKβ (458-756), GST-IKKγ (Prajapati et al. (2002) J. Biol. Chem. 277:24331-24339), GST-IKKγ (1-196) or GST-IKKγ (197-419) were then incubated with the MUC1-CD for 1 hour at 25° C. In other experiments, GST, GST-MUC1-CD, GST-MUC1-CD(1-45) or GST-MUC1-CD(46-72) were incubated with purified IKKβ or IKKγ. Adsorbates to glutathione-conjugated beads were analyzed by immunoblotting.

ZR-75-1/MUC1siRNA cells = experiment: Expression of Flag-tagged MUC1-CD in ZR-75-1/MUC1siRNA cells; type: cell-based, Human; conditions: compared to empty vector
Procedure: (§2) FIG. 9A is a pair of photographs of immunoblots. ZR-75-1/MUC1siRNA cells were transfected with the empty pIRES-puro2 vector or a pIRES-puro2-Flag-MUC1-CD vector. Lysates were prepared from the cells and subjected to SDS-PAGE and immunoblotting using antibodies specific to MUC1-C or β-actin as a control. The molecular weights of proteins (as indicated on the left of the photographs) are expressed as kilodaltons (kDa).
as §2, with “FIG. 9B” for “FIG. 9A”, “to immunoprecipitation” for “to SDS-PAGE and immunoblotting”, “to IKKγ. Immunoprecipitates were immunoblotted using antibodies specific for IKKβ” for “to MUC1-C”, “or IKKγ” for “or β-actin”, “as indicated.” for “as a control.”
as §2, with “9C” for “9A”, “immunoprecipitation” for “SDS-PAGE and immunoblotting”, “for IKKβ. Immunoprecipitates were immunoblotted using antibodies specific for phospho-IKKβ-ser-181” for “to MUC1-C”, “IKKβ” for “β-actin”, “indicated.” for “a control.”
FIG. 9D is a pair of photographs of immunoblots. Cytosolic fractions were prepared from ZR-75-1/MUC1siRNA cells transfected with the empty pIRES-puro2 vector or a pIRES-puro2-Flag-MUC1-CD vector. Lysates were immunoblotted with anti-phospho-IκBα and anti-IκBα antibodies where indicated. The molecular weights of proteins (as indicated on the left of the photographs) are expressed as kilodaltons (kDa).
FIG. 9E is a photograph of an immunoblot. Nuclear fractions were prepared from ZR-75-1/MUC1siRNA cells transfected with the empty pIRES-puro2 vector or a pIRES-puro2-Flag-MUC1-CD vector and subjected to immunoblotting with antibodies specific for NF-κB or lamin B as a control. As a further control for the quality of nuclear fractionation, immunoblotting for IκBα was performed using antibodies specific for IκBα. The molecular weights of proteins (as indicated on the left of the photographs) are expressed as kilodaltons (kDa).
Subcellular fractionation. Nuclear and cytosolic fractions were prepared as described in Kharbanda et al. (1996) Cancer Res. 56:3617-3621.
Immunoprecipitation and immunoblotting. Lysates from subconfluent cells were prepared as described in Ren et al. (2004) Cancer Cell 5:163-175. […] The immune complexes were detected with horseradish peroxidase-conjugated secondary (anti-IgG) antibodies (Amersham Biosciences) and enhanced chemiluminescence (ECL; Amersham Biosciences). […]

MUC1-CD: 72 amino acid cytoplasmic domain of human MUC1, SEQ ID NO:2
binding to IKKγ (IKKγ; GST pull-down with purified proteins, immunoblot): binds to purified IKKγ
region of IKKγ bound by MUC1-CD (IKKγ; GST-IKKγ (1-196) and GST-IKKγ (197-419) incubated with MUC1-CD): binds to the C-terminal region (197-419) of IKKγ
IKKβ-IKKγ complex formation (ZR-75-1/MUC1siRNA cells): increases in IKKβ-IKKγ complex formation
phosphorylation of IKKβ on Ser-181 (ZR-75-1/MUC1siRNA cells): increased phosphorylation
phosphorylation of IκBα (ZR-75-1/MUC1siRNA cells; cytosolic fractions): increased phosphorylation
targeting of NF-κB p65 to the nucleus (ZR-75-1/MUC1siRNA cells; nuclear fractions): increased targeting of NF-κB p65 to the nucleus
